Experimental data: patent publication US20030180808A1, “Drug signatures” (priority 2002, published 2003)
“Also recorded” adds a separate entry of the source. Like-named read-outs stand apart in the source and are kept apart here.

Assays:
[1] = rats, from the literature or experience, cited from earlier work
[2] = biological target: T1, PXR receptors (Mus musculus, UniProt O54915); details: cited from earlier work
T1 sequence (O54915 1-431): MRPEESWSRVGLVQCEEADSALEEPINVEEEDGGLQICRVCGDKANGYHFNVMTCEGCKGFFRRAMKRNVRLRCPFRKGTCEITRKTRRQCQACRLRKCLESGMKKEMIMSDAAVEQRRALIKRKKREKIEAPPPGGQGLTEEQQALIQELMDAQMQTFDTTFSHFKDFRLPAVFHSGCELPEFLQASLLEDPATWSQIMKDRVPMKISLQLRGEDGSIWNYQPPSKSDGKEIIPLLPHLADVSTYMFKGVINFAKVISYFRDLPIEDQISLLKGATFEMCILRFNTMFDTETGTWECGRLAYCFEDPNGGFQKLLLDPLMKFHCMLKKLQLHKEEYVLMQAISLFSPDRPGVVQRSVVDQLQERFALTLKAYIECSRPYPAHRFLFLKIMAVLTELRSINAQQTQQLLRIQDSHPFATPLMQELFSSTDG

[3] = tested on: 123 assays completed (panel of sites of drug action and drug toxicity); experiment: Molecular pharmacology assay panel (MDS-Pharma Services catalog); details: for activity in the 123 assays completed: <50% inhibition binned as 0, preliminary test at 30 μM
[4] = biological target: T2, estrogen receptor (Homo sapiens, UniProt P03372); details: read-out: EC50 stimulation of ER; cited from earlier work
T2 sequence (P03372 1-595): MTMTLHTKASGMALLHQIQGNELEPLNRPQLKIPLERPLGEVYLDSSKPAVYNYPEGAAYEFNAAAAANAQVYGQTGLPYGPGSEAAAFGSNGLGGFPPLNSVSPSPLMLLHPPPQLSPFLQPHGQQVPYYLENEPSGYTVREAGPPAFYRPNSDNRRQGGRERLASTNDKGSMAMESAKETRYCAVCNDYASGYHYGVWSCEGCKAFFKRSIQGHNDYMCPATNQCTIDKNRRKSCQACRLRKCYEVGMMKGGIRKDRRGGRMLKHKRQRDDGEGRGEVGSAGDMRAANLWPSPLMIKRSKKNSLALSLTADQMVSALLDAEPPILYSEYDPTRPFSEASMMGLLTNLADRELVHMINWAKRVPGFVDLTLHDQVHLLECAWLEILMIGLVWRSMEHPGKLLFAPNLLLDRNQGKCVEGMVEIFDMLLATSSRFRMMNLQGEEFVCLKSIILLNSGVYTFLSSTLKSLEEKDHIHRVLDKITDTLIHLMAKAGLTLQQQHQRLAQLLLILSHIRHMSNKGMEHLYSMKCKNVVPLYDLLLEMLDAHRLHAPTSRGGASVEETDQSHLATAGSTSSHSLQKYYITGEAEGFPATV

[5] = biological target: T3, PPARα (Homo sapiens, UniProt Q07869); details: cited from earlier work
T3 sequence (Q07869 1-468): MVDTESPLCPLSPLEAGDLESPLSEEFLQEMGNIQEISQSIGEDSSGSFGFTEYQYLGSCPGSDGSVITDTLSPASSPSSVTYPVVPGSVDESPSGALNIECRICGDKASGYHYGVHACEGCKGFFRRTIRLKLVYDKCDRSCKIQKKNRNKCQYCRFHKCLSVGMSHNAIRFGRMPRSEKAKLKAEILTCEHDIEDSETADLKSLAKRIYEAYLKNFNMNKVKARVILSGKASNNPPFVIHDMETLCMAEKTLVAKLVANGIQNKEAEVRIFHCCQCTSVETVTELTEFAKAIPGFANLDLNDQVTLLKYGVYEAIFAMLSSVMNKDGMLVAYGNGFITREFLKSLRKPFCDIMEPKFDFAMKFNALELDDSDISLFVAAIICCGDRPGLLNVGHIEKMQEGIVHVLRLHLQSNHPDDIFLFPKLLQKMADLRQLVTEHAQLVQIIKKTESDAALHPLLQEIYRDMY

[6] = biological target: T2, estrogen receptor; experiment: Molecular pharmacology panel assay: estrogen receptor
[7] = tested on: site-2 sodium channel; experiment: Molecular pharmacology panel assay: site-2 sodium channel
[8] = hypertriglyceridemic patients; known side effect; cited from earlier work

Row | Compound | maximum tolerated dose (MTD) ([1]; subcutaneously in arrachis oil) [mg/kg] | maximum tolerated dose (MTD) ([1]; oral gavage in 1% NaCMC) | activity in the 123 assays completed [3] | other results
1 | CC(C)(c1ccc(O)cc1)c1ccc(O)cc1 [BPA, bisphenol A] | 150 |  |  | activity on PXR [2]: completely inactive
2 | CCOC(=O)C(C)(C)Oc1ccc(Cl)cc1 [Clofibrate, clofibrate] |  | 250 mg/kg | no activity | 
3 | CCCCC(CC)COC(=O)c1ccccc1C(=O)OCC(CC)CCCC (centres unmarked) [DEHP] |  | 1,000 mg/kg | no activity | EC50 [4]: ~1000 nM; stimulation of PPARα [5]: potently stimulate
4 | C[C@]12CC[C@@H]3c4ccc(O)cc4CC[C@H]3[C@@H]1CC[C@@H]2O [Estradiol] |  |  |  | activity on PXR [2]: completely inactive
5 | CC(C)OC(=O)C(C)(C)Oc1ccc(C(=O)c2ccc(Cl)cc2)cc1 [Fenofibrate] |  | 1,000 mg/kg |  | interaction with the estrogen receptor [6]: interacted weakly; interaction with the site-2 sodium channel [7]: interacted weakly
6 | Cc1ccc(C)c(OCCCC(C)(C)C(=O)O)c1 [Gemfibrozil, gemfibrozil] |  | 300 mg/kg | no activity | effect on LDL levels [8]: induce an increase in LDL (low density lipoprotein) levels; also recorded: induces an increase in LDL levels
7 | CC(C)(C)CC(C)(C)c1ccc(O)cc1 [OP] | 450 |  |  | number of assays in which compound interacted ([3]; of the 123 assays conducted): 16
8 | C[C@]12CC[C@@H]3c4ccc(OC(=O)c5ccccc5)cc4CC[C@H]3[C@@H]1CC[C@@H]2O [estradiol benzoate, Estradiol benzoate] | 2 |  |  | 
9 | nonylphenol |  |  |  | EC50 [4]: ~1000 nM; EC50 ([2]; read-out: EC50 stimulation of PXR receptors): ~500 nM
